{
  "source": "patent US9913811B2",
  "about": "“Hydroxynaphthoquinone compounds for treatment of non-small cell lung cancer” (Macau University of Science and Technology, priority 2016, dated 2018)",
  "assay_type_in_all_cases": "cell-based",
  "key": {"EGFR": {"target": "T1, EGFR (Homo sapiens, UniProt P00533, L858R/T790M)", "T1 construct": "H1975 cells were planted on 6-well plate, allowed to attach for 24 h, and treated; host or cells: H1975 NSCLC adenocarcinoma cells", "assay": "Western blot of EGFR phosphorylation, H1975", "conditions": "H1975 cells, 1, 2, 3, 4 μM, 2 h", "description": "H1975 cells were planted on 6-well plate, allowed to attach for 24 h, and treated with the various concentrations of the compound of Formula (Ic) for 2 h. Cells were washed twice with cold PBS then lysed in RIPA lysis buffer containing protease and phosphatase inhibitors. Protein concentration of the cell lysates was measured using the Bio-Rad protein Assay kit (Bio-Rad, 7 Philadelphia, Pa., USA). After equalizing the protein concentrations of the samples, 5× laemmli buffer was added and the samples were boiled at 100° C. for 5 min. Equal amounts of protein samples (30 μg) were subjected to SDS-PAGE of a 10% gel. The separated proteins were transferred to a nitrocellulose (NC) membrane, which was then exposed to 5% non-fat dried milk in TBS containing 0.1% Tween (0.1% TBST) for 1 h at room temperature, followed by overnight incubation at 4° C. with primary antibodies. After washing three times by TBST (5 mins/time), the membranes were incubated for 1 h at room temperature with the secondary fluorescent antibodies (1:10000 dilutions) to rabbit or mouse. The signal intensity of the membranes was detected by an LI-COR Odessy scanner (Belfast, Me., USA). Actin was used as the loading control for normalization."}, "[1]": {"system": "cleaved Caspase-3 and cleaved PARP in H1650 cells", "assay": "Western blot of cleaved caspase-3 and cleaved PARP, H1650", "conditions": "24 h", "description": "(§1) The H1650 or H1975 cells were planted on 6-well plates, allowed to attach for 24 h, and treated with 4 μM of the compound of Formula (IIa) with or without NAC (10 mM) for 24 h. Cells were washed twice with cold PBS then lysed in RIPA lysis buffer containing protease and phosphatase inhibitors. Protein concentration of the cell lysates was measured using the Bio-Rad protein Assay kit (Bio-Rad, 7 Philadelphia, Pa., USA). After equalizing the protein concentrations of the samples, 5× laemmli buffer was added and the samples were boiled at 100° C. for 5 min. Equal amounts of protein samples (30 μg) were subjected to SDS-PAGE of a 10% gel. The separated proteins were transferred to a nitrocellulose (NC) membrane, which was then exposed to 5% non-fat dried milk in TBS containing 0.1% Tween (0.1% TBST) for 1 h at room temperature, followed by overnight incubation at 4° C. with primary antibodies. After washing three times by TBST (5 mins/time), the membranes were incubated for 1 h at room temperature with secondary fluorescent antibodies (1:10000 dilutions) to rabbit or mouse. The signal intensity of the membranes was detected by an LI-COR Odessy scanner (Belfast, Me., USA)."}, "[2]": {"system": "cleaved Caspase-3 and cleaved PARP in H1975 cells", "assay": "Western blot of cleaved caspase-3 and cleaved PARP, H1975", "conditions": "24 h", "description": "as §1"}, "H1975 cells [3]": {"system": "H1975 cells", "assay": "Annexin-V/PI apoptosis assay by flow cytometry, H1975", "description": "(§2) Apoptosis assay was performed on gefitinib-resistant H1650 and H1975 cells. The cells (1.0×10^5 cells/well) were allowed to attach to a 6-well plate for 24 h, and the cells were treated with the various concentrations of the compound of Formula (IIa) for additional 24 h. At the end of incubation, the cells were harvested by trypsinization and washed twice with ice-cold PBS. After centrifugation and removal of the supernatants, cell pellets were resuspended in 100 μL 1×Annexin-binding buffer, 2 μL Annexin-V FITC and 2 μL PI (100 μg/ml) were added and incubated in the dark at room temperature for 15 min before further addition of 400 μL of 1×Annexin-binding buffer. The stained cells were analyzed quantitatively using a flow cytometer (BD Biosciences, San Jose, Calif., USA). Data were analyzed by Flow Jo software. FIG. 2A to 2E show fluorescence images of H1650 cells and FIG. 3A to 3E show fluorescence images of H1975 cells having been treated with the compound of Formula (IIa) at 1 μM, 2 μM, 3 μM and 4 μM; and DMSO (control, negative control).\n(§3) Apoptosis assay and analysis with flow cytometer was performed as described in Example 1B with H1650 and H1975 cells and treatment with 4 μM of the compound of Formula (IIa) for 30 min in the presence or absence of N-acetylcystein (NAC) or treatment with DMSO (control, negative control). […]"}, "CCD-19LU": {"system": "CCD-19LU", "assay": "MTT cytotoxicity assay, non-cancerous lung fibroblast cells", "conditions": "24 h treatment", "description": "To show the highly cytotoxic properties of the present compound of Formula (IIa), H1650, HCC827 and H1975 NSCLC cells and non-cancerous lung fibroblast cells (CCD-19LU) were treated with the compound of Formula (IIa) and respective effects were observed. H1650 cells are adenocarcinoma cells harboring an E746-A750del deletion in exon 19 and other driver mutation genes which lead to a resistance against gefitinib. HCC827 cells are adenocarcinoma cells harboring high level EGFR amplification and an E746-A750del deletion in exon 19 without gefitinib-resistance. H1975 cells are adenocarcinoma cells harboring L858R substitution in exon 21 and a T790M substitution in exon 20 which is directly associated with resistance against gefitinib. The cells were obtained from the American Type Culture Collection (ATCC) and cultured in environment of 5% CO2 at 37° C. in RPMI-1640 medium supplemented with 10% fetal bovine serum (FBS), 100 units/mL penicillin, and 100 μg/mL streptomycin. The compound of Formula (IIa) was dissolved in DMSO. […] The absorbance was measured at 570 nm by a microplate reader (Tecan, Morrisville, N.C., USA).\nThe cell viability was calculated relative to untreated controls, with results based on at least three independent experiments."}, "H1975 cells [4]": {"system": "H1975 cells", "assay": "ROS generation, H1975", "conditions": "4 μM, 30 min treatment", "description": "(§4) Apoptosis assay and analysis with flow cytometer was performed as described in Example 1B with H1650 and H1975 cells and treatment with 4 μM of the compound of Formula (IIa) for 30 min in the presence or absence of N-acetylcystein (NAC) or treatment with DMSO (control, negative control). FIG. 4A to 4D show fluorescence images of H1650 cells and FIG. 5A to 5D show fluorescence images of H1975 cells.\n(§5) ROS generation was considered as the direct cause of apoptosis induced by the compound of Formula (IIa). After 30 min treatment of the H1650 and H1975 cells, the intensity of ROS increased more than 10-fold."}, "H1650 cells [5]": {"system": "H1650 cells", "assay": "Annexin-V/PI apoptosis assay by flow cytometry, H1650", "description": "as §2, §3"}, "H1650 cells [6]": {"system": "H1650 cells", "assay": "ROS generation, H1650", "conditions": "4 μM, 30 min treatment", "description": "as §4, §5"}, "[7]": {"conditions": "4 μM Formula (IIa) with 10 mM NAC"}},
  "data": [
    {"smiles": "CC(C)=CC[C@@H](O)C1=CC(=O)c2c(O)ccc(O)c2C1=O", "note": "[Formula (IIa), shikonin]", "values": [
      {"measurement": "EGFR phosphorylation (tyrosine 1068, 1173, 1045)", "setting": "EGFR", "value": "suppress EGFR phosphorylation"},
      {"measurement": "cleaved Caspase-3 and cleaved PARP expression", "setting": "[1]; 4 μM", "value": "increase in cleaved Caspase-3 and cleaved Poly(ADP-ribose) Polymerase (PARP)"},
      {"measurement": "cleaved Caspase-3 and cleaved PARP expression", "setting": "[2]; 4 μM", "value": "increase in cleaved Caspase-3 and cleaved Poly(ADP-ribose) Polymerase (PARP)"},
      {"measurement": "induction of apoptosis", "setting": "H1975 cells [3]; H1975 cells, 1, 2, 3, 4 μM, 24 h", "value": "significantly induced apoptosis"},
      {"measurement": "cytotoxicity on non-cancerous lung fibroblast cells compared with NSCLC cells", "setting": "CCD-19LU", "value": "much lower cytotoxicity"},
      {"measurement": "increase of intensity of ROS", "setting": "H1975 cells [4]", "value": "more than 10 fold"},
      {"measurement": "induction of apoptosis", "setting": "H1650 cells [5]; H1650 cells, 1, 2, 3, 4 μM, 24 h", "value": "significantly induced apoptosis"},
      {"measurement": "increase of intensity of ROS", "setting": "H1650 cells [6]", "value": "more than 10 fold"}
    ]},
    {"smiles": "CC(=O)N[C@@H](CS)C(=O)O", "note": "[NAC, N-acetylcystein, reference compound]", "values": [
      {"measurement": "effect of NAC on apoptosis (cleaved Caspase-3, cleaved PARP) induced by Formula (IIa)", "setting": "[1]; [7]", "value": "blocked"},
      {"measurement": "effect of NAC on apoptosis (cleaved Caspase-3, cleaved PARP) induced by Formula (IIa)", "setting": "[2]; [7]", "value": "blocked"},
      {"measurement": "effect of NAC on apoptosis induced by the compound of Formula (IIa)", "setting": "H1975 cells [3]; H1975 cells, 4 μM Formula (IIa) in presence of NAC", "value": "completely blocked the apoptosis"},
      {"measurement": "effect of NAC on apoptosis induced by the compound of Formula (IIa)", "setting": "H1650 cells [5]; H1650 cells, 4 μM Formula (IIa) in presence of NAC", "value": "completely blocked the apoptosis"}
    ]}
  ]
}
